The values that follow come from patent US9174997B2, “4-(4-cyano-2-thioaryl)dihydropyrimidinones and use thereof” (Bayer Intellectual Property GmbH, priority 2007, dated 2015).

Data set [1] concerns the target human neutrophil elastase (HNE) (Homo sapiens (Human), UniProt P08246). Put plainly: In vitro HNE inhibition assay. In kind it is biochemical. As to conditions: HNE concentration of 80 pM; substrate MeOSuc-Ala-Ala-Pro-Val-AMC; 37° C. for 2 hours. The procedure: B-1. In Vitro HNE Inhibition Assay
The potency of the compounds of the invention is ascertained in an in vitro inhibition assay. The HNE-mediated amidolytic cleavage of a suitable peptide substrate leads in this connection to an increase in the fluorescent light. The signal intensity of the fluorescent light is directly proportional to the enzyme activity.
Enzyme ([…]; from Serva, Heidelberg) and substrate (20 μM MeOSuc-Ala-Ala-Pro-Val-AMC; from Bachem, Weil am Rhein) are incubated in an assay volume of in total 50 μl of assay buffer (0.1 M HEPES pH 7.4, 0.5 M NaCl, 0.1% w/v BSA, 1% v/v DMSO) in a 384-well microtiter plate in the presence and absence of the test substance at 37° C. for 2 hours. […] The IC50 values are determined by plotting the intensity of the fluorescent light against the active substance concentration.

The test system of a further data set is rat hepatocytes. Kind of data set: Hepatocyte assay to determine the metabolic stability. To be noted: after incubation with rat hepatocytes. The format is in vitro ADME. The procedure:
B-6. Hepatocyte Assay to Determine the Metabolic Stability
The metabolic stability of test compounds in the presence of hepatocytes is determined by incubating the compounds with low concentrations (preferably below or around 1 μM) and with low cell counts (preferably 1*10^6 cells/ml) in order to ensure as far as possible linear kinetic conditions in the experiment. Seven samples of the incubation solution are taken in a fixed time pattern for the […] analysis in order to determine the half-life (i.e. the degradation) of the compound in each case. Various clearance parameters (CL) and Fmax values are calculated from this half-life (see below).
The Cl and Fmax values represent a measure of the phase 1 and phase 2 metabolism of the compounds in the hepatocytes. In order to minimize the influence of the organic solvent on the enzymes in the incubation mixtures, this concentration is generally limited to 1% (acetonitrile) or 0.1% (DMSO).
A cell count for hepatocytes in the liver of 1.1*10^8 cells/g of liver is used for calculation for all species and breeds.
The calculated parameters and their meaning are:
Representative values for the compounds according to the invention from this assay after incubation of the compounds with rat hepatocytes are shown in Table B below: […]

SMILES strings stand for the structures. A value given as a limit tells only on which side of the number the result lay.

Sequence of human neutrophil elastase (HNE) (P08246 30-267): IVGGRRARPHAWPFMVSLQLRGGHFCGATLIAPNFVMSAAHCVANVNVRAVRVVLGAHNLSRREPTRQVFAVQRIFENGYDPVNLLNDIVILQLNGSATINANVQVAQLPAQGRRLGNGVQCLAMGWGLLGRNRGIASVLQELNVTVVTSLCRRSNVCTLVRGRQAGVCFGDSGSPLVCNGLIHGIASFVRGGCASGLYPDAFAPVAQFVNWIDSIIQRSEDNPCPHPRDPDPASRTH

Turning to `CC1=C(C#N)[C@@H](c2ccc(C#N)cc2S(C)(=O)=O)N(S(=O)(=O)c2ccc(F)cc2)C(=O)N1c1cccc(C(F)(F)F)c1` [Example 91], the IC50 in data set [1] was < 0.3 nM. In the data set with rat hepatocytes, the “CLblood, calculated blood clearance (well stirred model)” value (“CLblood, calculated blood clearance” below) is 12 mL/min/kg and the “Fmax, maximum possible bioavailability after oral administration (well-stirred)” value (shortened to “Fmax, maximum possible bioavailability”) is reported as 83%.

As for `CC1=C(C#N)[C@@H](c2ccc(C#N)cc2S(C)(=O)=O)N(CC#N)C(=O)N1c1cccc(C(F)(F)F)c1` [Example 116, (4S)-3-(Cyanomethyl)-4-[4-cyano-2-(methylsulfonyl)phenyl]-6-methyl-2-oxo-1-[3-(trifluoromethyl)phenyl]-1,2,3,4-tetrahydropyrimidine-5-carbonitrile], the IC50 in data set [1] is < 0.3 nM. In the data set with rat hepatocytes, the “CLblood, calculated blood clearance” value was 6.7 mL/min/kg and the “Fmax, maximum possible bioavailability” value is given as 91%.

For the molecule `CCS(=O)(=O)c1cc(C#N)ccc1[C@@H]1C(C#N)=C(C)N(c2cccc(C(F)(F)F)c2)C(=O)N1C` [Example 128, (4S)-4-[4-Cyano-2-(ethylsulfonyl)phenyl]-3,6-dimethyl-2-oxo-1-[3-(trifluoromethyl)phenyl]-1,2,3,4-tetrahydropyrimidine-5-carbonitrile], the IC50 in data set [1] was < 0.3 nM. Besides, in the data set on rat hepatocytes, the “CLblood, calculated blood clearance” value is 15 mL/min/kg and the “Fmax, maximum possible bioavailability” value is given as 78%.

Turning to `CC1=C(C(=O)OCCO)[C@@H](c2ccc(C#N)cc2S(C)(=O)=O)N(S(C)(=O)=O)C(=O)N1c1cccc(C(F)(F)F)c1` [Example 144, 2-Hydroxyethyl (4S)-4-[4-cyano-2-(methylsulfonyl)phenyl]-6-methyl-3-(methylsulfonyl)-2-oxo-1-[3-(trifluoromethyl)phenyl]-1,2,3,4-tetrahydropyrimidine-5-carboxylate], in data set [1], the half-maximal inhibitory concentration (IC50) was < 0.3 nM. Besides, in the data set on rat hepatocytes, the “CLblood, calculated blood clearance” value is 20 mL/min/kg and the “Fmax, maximum possible bioavailability” value amounted to 72%.
